Results on eight molecules are retold here after PubChem BioAssay (NCI).

Among the test systems are HCT-15 colon; SK-MEL-28 melanoma; RPMI-8226 leukemia; DU-145 prostate; SN12C renal; CCRF-CEM leukemia; CAKI-1 renal; SW-620 colon; MDA-MB-435; NCI-H522 lung.
Common to all, as to experiment: NCI-60 cell line screen, 48 h

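Compound exposure: 48 hours, 5 concentrations, 96-well plates. At the GI50, growth is halved. TGI is the concentration that stops growth completely.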 A value given as a limit tells only on which side of the number the result lay.

For the molecule `CCN1CCC(Nc2ccnc3cc(Cl)ccc23)CC1`, the GI50 in the test with HCT-15 colon is 30.1 µM; in the test on SK-MEL-28 melanoma it was 18.1 µM; with RPMI-8226 leukemia it was 25.9 µM; in the test on DU-145 prostate, 36.5 µM; in the test with SN12C renal, 91.9 µM; in the test with CCRF-CEM leukemia, 36.9 µM. The GI50 with CAKI-1 renal is 21.5 µM; in the test with SW-620 colon, 21.8 µM; in the test with MDA-MB-435 it was 17.8 µM. For the same molecule, the TGI in the test on HCT-15 colon is > 100 µM; with SK-MEL-28 melanoma, 33.5 µM; with RPMI-8226 leukemia it was 78.3 µM; with DU-145 prostate it was > 100 µM; in the test with SN12C renal, > 100 µM; with CCRF-CEM leukemia, > 100 µM. Further, the TGI with CAKI-1 renal was > 100 µM; in the test with SW-620 colon it was > 100 µM; in the test on MDA-MB-435 it was 55.5 µM.

As for `C=C(CN1CCN(c2ccc(C(F)(F)F)cc2)CC1)c1ccc(C(=O)Nc2ccccc2N)cc1`, the GI50 was > 100 µM with HCT-15 colon; > 100 µM with SK-MEL-28 melanoma; 1.85 µM with NCI-H522 lung; 0.405 µM in the test with RPMI-8226 leukemia; 21 µM in the test with DU-145 prostate; 6.37 µM in the test with SN12C renal. Besides, the GI50 is 6.08 µM in the test with CAKI-1 renal, > 78.8 µM in the test with SW-620 colon and > 25.2 µM in the test on MDA-MB-435. Besides, the TGI was > 100 µM in the test on HCT-15 colon; > 100 µM with SK-MEL-28 melanoma; > 100 µM in the test on NCI-H522 lung; > 100 µM with DU-145 prostate; > 100 µM in the test with SN12C renal; 44 µM in the test with CAKI-1 renal. The TGI in the test on SW-620 colon and with MDA-MB-435 was > 100 µM in each case.

`CCCc1n(Cc2ccc3ccccc3c2)cc[n+]1Cc1ccc2ccccc2c1`: the GI50 was 3.69 µM in the test on HCT-15 colon; 1.06 µM with SK-MEL-28 melanoma; 0.378 µM in the test on NCI-H522 lung; 0.399 µM in the test on RPMI-8226 leukemia; 1.49 µM with DU-145 prostate; 1.07 µM in the test with SN12C renal. Moreover, the GI50 in the test with CCRF-CEM leukemia was 1.48 µM; in the test on SW-620 colon it was 1.34 µM; in the test with MDA-MB-435, 0.564 µM. Also, the TGI worked out at 16.1 µM in the test on HCT-15 colon; 2.52 µM in the test with SK-MEL-28 melanoma; 1.69 µM in the test on NCI-H522 lung; 1.67 µM in the test with RPMI-8226 leukemia; 7.25 µM in the test with DU-145 prostate; 2.53 µM in the test with SN12C renal. The TGI was 4.93 µM with CCRF-CEM leukemia, 3.33 µM with SW-620 colon and 2.06 µM in the test with MDA-MB-435.

Consider `O=c1c2ccc(S(=O)(=O)c3ccc4c(=O)n5c6ccccc6nc5c5cccc3c45)c3cccc(c32)c2nc3ccccc3n12`, for which the TGI in the test on HCT-15 colon, in the test with SK-MEL-28 melanoma, in the test on NCI-H522 lung, in the test with RPMI-8226 leukemia, with DU-145 prostate and in the test with SN12C renal was > 100 µM each time. For the same molecule, the TGI in the test on CAKI-1 renal and in the test with MDA-MB-435 was > 100 µM throughout.

Take `O=C(Nc1ccc(Cc2ccccc2)cc1)Nc1nn(C(=O)Nc2ccc(Cc3ccccc3)cc2)c2ccccc12`: the GI50 in the test on HCT-15 colon is > 100 µM; in the test on SK-MEL-28 melanoma it was > 100 µM; with NCI-H522 lung it was > 100 µM; in the test with RPMI-8226 leukemia it was > 100 µM; with DU-145 prostate, 80 µM; with SN12C renal it was > 100 µM. The GI50 with CAKI-1 renal, with SW-620 colon and in the test with MDA-MB-435 was > 100 µM each time. The TGI in the test with HCT-15 colon, in the test with SK-MEL-28 melanoma, in the test on NCI-H522 lung, in the test with RPMI-8226 leukemia, in the test on DU-145 prostate and with SN12C renal was > 100 µM in each case. The TGI in the test with CAKI-1 renal, in the test on SW-620 colon and in the test with MDA-MB-435 was > 100 µM throughout.

Regarding `Cc1c(O)c(N=Nc2nc3ccccc3s2)c2ccccc2c1O`, the GI50 with HCT-15 colon is 23.3 µM; in the test on NCI-H522 lung, 19.1 µM; in the test with RPMI-8226 leukemia it was 23.6 µM; in the test on DU-145 prostate it was 23.4 µM; in the test with SN12C renal, 16.7 µM; in the test on CCRF-CEM leukemia it was > 50 µM. Also, the GI50 is 21.1 µM with CAKI-1 renal, 25.9 µM with SW-620 colon and 19.8 µM with MDA-MB-435. Moreover, the TGI with HCT-15 colon was > 50 µM; in the test with NCI-H522 lung it was 46.6 µM; with RPMI-8226 leukemia it was > 50 µM; with DU-145 prostate, > 50 µM; in the test with SN12C renal it was > 50 µM; in the test with CCRF-CEM leukemia, > 50 µM. Besides, the TGI in the test with CAKI-1 renal, in the test with SW-620 colon and in the test on MDA-MB-435 was > 50 µM in each case.

As for `COC(=O)C1=C(O)[C@H](C(=O)OC)C2(O)C(C(=O)OC)[C@H](c3ccc(OC(=O)C(C)c4ccccc4)cc3)C[C@@H]1[C@@H]2C(=O)OC` (stereo partly drawn), the GI50 in the test with HCT-15 colon is 18.4 µM; in the test on SK-MEL-28 melanoma it was 26.7 µM; in the test with NCI-H522 lung, 15.9 µM; in the test with RPMI-8226 leukemia, 18.8 µM; with DU-145 prostate, 20.6 µM; in the test with SN12C renal, 23.7 µM. In addition, the GI50 with CAKI-1 renal is 15.2 µM; in the test on SW-620 colon, 21 µM; in the test with MDA-MB-435 it was 10.4 µM. Further, the TGI in the test with HCT-15 colon was > 50 µM; in the test with SK-MEL-28 melanoma it was > 50 µM; in the test on NCI-H522 lung, 45.1 µM; with RPMI-8226 leukemia it was > 50 µM; in the test on DU-145 prostate, > 50 µM; with SN12C renal it was > 50 µM. For the same molecule, the results for the TGI in the test with CAKI-1 renal, with SW-620 colon and in the test on MDA-MB-435 were > 50 µM, > 50 µM and 25.1 µM, respectively.

As for `CCCCN1CCCC[C@@H]1C(=O)N[C@H](C(=O)N(C)[C@H](C[C@@H](OC(C)=O)c1nc(C(=O)NC2CCC(C(=O)OC)CC2)cs1)C(C)C)C(C)C` (stereo partly drawn), the GI50 in the test with HCT-15 colon was 0.851 µM; in the test with SK-MEL-28 melanoma, 17.9 µM; with NCI-H522 lung, 0.897 µM; with RPMI-8226 leukemia, 1.1 µM; with DU-145 prostate, 1.31 µM; in the test with SN12C renal, 2.15 µM. For the same molecule, the GI50 with CCRF-CEM leukemia is 1.1 µM; with SW-620 colon, 1.06 µM; in the test with MDA-MB-435, 0.224 µM. Also, the TGI in the test on HCT-15 colon is 16.8 µM; in the test on SK-MEL-28 melanoma, > 25 µM; with NCI-H522 lung, 7.04 µM; with RPMI-8226 leukemia, > 25 µM; with DU-145 prostate, > 25 µM; in the test on SN12C renal, > 25 µM. Also, the TGI with CCRF-CEM leukemia is > 25 µM; with SW-620 colon it was > 25 µM; in the test with MDA-MB-435, 0.736 µM.
